pIC50: −log10 of the molar value.

Test [1] deals with T1, Mitogen-activated protein kinase kinase kinase 5 (Homo sapiens) (UniProt Q99683).
T1 sequence (whole entry): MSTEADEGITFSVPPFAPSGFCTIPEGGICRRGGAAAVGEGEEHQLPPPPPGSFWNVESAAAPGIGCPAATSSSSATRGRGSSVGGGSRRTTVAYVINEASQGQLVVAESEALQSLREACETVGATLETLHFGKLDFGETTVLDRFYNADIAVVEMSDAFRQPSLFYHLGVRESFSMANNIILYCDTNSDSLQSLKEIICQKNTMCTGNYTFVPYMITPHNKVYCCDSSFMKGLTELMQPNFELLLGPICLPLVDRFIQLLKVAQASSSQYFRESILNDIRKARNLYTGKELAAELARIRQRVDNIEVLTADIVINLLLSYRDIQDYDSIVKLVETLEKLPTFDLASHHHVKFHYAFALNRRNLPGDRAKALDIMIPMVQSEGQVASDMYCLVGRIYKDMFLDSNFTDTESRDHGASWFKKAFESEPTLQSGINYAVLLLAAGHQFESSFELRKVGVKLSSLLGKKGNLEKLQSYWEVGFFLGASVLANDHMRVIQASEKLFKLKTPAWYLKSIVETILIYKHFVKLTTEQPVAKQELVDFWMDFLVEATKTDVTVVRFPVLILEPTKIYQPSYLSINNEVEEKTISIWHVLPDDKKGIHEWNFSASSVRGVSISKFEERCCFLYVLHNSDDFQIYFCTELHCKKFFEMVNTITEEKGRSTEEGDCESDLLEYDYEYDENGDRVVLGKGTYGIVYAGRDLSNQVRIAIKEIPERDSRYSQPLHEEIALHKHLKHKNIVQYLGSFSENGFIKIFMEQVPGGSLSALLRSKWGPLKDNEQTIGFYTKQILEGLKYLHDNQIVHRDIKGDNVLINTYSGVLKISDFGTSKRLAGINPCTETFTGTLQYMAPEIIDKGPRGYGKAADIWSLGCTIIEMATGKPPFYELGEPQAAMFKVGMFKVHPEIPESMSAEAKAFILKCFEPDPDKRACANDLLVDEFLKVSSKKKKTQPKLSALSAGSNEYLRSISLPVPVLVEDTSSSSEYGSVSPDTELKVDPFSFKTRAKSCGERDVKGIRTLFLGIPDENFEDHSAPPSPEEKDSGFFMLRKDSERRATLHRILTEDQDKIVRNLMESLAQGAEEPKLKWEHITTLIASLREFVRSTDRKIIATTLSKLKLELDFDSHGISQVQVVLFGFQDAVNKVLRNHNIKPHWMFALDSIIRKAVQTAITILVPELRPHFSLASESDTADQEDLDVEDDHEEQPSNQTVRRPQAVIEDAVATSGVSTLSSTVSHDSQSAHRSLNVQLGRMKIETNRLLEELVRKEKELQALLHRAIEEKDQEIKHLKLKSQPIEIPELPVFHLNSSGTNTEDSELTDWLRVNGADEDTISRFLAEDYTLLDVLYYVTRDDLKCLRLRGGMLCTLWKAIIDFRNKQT
As to the kind of experiment: Inhibition of recombinant ASK1 catalytic subunit (unknown origin) assessed as residual enzyme activity at 10 uM using MBP substrate and gamma-labeled 32P ATP incubated for 20 mins by liquid scintillation counting method.

Test [2] addresses Mitogen-activated protein kinase 10 (Homo sapiens) (UniProt P53779). The experiment in a line: Inhibition of JNK3 (unknown origin) assessed as residual enzyme activity at 10 uM using JNK3tide substrate.
Test [3] concerns the target Angiopoietin-1 receptor (Homo sapiens) (UniProt Q02763). The experiment in a line: Inhibition of Tie2 (unknown origin) assessed as residual enzyme activity at 10 uM using TK Substrate 2 (poly Glu-Tyr) substrate.
Test [4] deals with T2, Aurora kinase A (Homo sapiens) (UniProt O14965).
T2 sequence (whole entry): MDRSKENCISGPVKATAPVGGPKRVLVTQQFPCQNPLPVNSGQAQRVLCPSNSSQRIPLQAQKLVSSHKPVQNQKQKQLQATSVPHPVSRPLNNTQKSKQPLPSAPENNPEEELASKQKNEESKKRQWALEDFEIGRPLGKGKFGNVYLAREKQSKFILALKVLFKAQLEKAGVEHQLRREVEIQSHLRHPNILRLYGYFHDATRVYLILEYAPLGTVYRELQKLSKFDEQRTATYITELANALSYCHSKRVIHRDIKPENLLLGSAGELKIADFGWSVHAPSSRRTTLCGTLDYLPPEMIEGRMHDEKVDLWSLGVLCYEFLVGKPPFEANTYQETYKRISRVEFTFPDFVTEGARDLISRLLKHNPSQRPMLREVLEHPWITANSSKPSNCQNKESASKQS
As to the kind of experiment: Inhibition of Aurora A (unknown origin) assessed as residual enzyme activity at 10 uM using kemptide substrate.

Test [5] deals with Fibroblast growth factor receptor 1 (Homo sapiens) (UniProt P11362). The experiment in a line: Inhibition of FGFR1 (unknown origin) assessed as residual enzyme activity at 10 uM using IGF-IRtide (12 to 527) substrate.
Fibroblast growth factor receptor 1 (Homo sapiens), sequence (P11362 22-822 limits assumed): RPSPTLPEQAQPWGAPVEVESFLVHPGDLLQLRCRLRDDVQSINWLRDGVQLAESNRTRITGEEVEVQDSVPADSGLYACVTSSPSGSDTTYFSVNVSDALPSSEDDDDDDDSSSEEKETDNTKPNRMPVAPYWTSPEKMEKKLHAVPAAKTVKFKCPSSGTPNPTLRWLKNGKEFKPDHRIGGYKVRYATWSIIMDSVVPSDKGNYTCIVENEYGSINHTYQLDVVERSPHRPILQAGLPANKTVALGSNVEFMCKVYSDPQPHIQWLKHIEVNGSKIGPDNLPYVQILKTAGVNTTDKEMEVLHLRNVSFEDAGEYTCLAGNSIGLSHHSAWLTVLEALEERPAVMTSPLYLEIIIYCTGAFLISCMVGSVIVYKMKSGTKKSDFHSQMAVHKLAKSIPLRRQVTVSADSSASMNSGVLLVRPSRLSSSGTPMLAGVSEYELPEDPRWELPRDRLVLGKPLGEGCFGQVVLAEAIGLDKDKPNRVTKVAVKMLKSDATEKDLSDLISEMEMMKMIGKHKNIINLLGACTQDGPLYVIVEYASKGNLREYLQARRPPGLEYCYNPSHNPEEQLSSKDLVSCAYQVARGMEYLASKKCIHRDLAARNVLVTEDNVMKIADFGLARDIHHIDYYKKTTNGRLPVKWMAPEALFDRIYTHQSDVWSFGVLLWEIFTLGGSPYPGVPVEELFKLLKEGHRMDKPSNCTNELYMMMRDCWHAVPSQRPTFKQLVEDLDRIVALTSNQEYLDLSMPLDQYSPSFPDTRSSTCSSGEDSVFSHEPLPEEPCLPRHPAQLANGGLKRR
For test [6], the target named is T3, Mitogen-activated protein kinase kinase kinase 5 (Homo sapiens, UniProt Q99683).
T3 sequence (Q99683 whole entry): T1 sequence (whole entry)
The experiment in a line: Inhibition of recombinant ASK1 catalytic subunit (unknown origin) using MBP substrate and gamma-labeled 32P ATP incubated for 20 mins by liquid scintillation counting method.

Test [7] concerns the target Casein kinase II (Homo sapiens) (UniProt P67870+P68400+P19784). The experiment in a line: Inhibition of CK2 (unknown origin) assessed as residual enzyme activity at 10 uM using RRRDDDSDDD substrate peptide. The test is classed as protein-complex assay.

Angiopoietin-1 receptor (Homo sapiens), sequence (Q02763 whole entry): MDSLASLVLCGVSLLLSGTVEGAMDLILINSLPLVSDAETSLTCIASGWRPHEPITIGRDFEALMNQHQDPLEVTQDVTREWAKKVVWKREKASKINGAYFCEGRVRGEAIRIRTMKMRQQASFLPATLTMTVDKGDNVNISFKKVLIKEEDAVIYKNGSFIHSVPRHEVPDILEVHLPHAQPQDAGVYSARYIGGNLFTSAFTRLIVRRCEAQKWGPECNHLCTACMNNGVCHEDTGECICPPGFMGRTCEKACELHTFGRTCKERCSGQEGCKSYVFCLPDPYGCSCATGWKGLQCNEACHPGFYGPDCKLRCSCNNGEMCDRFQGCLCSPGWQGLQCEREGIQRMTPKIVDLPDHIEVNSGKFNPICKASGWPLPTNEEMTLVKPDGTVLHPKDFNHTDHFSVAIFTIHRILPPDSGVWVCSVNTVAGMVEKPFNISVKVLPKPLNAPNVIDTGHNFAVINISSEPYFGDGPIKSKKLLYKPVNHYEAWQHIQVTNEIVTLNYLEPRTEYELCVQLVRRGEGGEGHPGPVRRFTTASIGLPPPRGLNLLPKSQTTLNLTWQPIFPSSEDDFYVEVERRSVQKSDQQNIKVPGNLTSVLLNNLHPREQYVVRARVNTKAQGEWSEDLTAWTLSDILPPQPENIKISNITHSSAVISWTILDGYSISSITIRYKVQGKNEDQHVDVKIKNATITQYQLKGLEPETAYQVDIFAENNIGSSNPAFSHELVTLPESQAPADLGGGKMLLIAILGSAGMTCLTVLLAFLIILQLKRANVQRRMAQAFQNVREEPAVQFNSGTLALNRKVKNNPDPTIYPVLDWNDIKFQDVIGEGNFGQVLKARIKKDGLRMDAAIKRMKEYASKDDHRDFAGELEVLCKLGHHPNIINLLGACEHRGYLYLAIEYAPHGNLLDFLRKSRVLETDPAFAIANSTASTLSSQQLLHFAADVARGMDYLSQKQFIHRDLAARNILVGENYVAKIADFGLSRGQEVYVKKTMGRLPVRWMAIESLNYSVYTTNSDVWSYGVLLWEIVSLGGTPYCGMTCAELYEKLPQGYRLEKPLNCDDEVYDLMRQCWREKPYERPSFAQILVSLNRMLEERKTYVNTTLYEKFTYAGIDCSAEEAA
Mitogen-activated protein kinase 10 (Homo sapiens), sequence (P53779 whole entry): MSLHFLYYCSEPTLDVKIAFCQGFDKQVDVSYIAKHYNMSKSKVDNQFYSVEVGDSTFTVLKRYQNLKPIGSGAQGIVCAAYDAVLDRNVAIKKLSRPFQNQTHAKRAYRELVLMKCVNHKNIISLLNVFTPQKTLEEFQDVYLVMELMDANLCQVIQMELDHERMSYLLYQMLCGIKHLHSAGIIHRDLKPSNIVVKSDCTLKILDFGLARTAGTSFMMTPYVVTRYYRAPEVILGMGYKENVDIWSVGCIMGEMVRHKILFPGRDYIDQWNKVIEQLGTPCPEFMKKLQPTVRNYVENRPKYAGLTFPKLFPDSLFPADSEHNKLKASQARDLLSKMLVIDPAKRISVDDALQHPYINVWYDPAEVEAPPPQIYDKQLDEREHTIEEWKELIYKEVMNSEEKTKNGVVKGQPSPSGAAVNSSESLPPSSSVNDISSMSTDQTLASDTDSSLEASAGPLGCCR

Turning to `CCOc1ccc2nc(N3C(=O)C(O)=C(C(=O)c4cccs4)C3c3ccc(C)cc3)sc2c1` (stereo unspecified), the Activity in test [1] is 27%; in test [2], 100%; in test [3], 83.2%; in test [4] it was 45.4%; in test [5], 88.7%; in test [7] it was 79.9%. Further, the pIC50 (commonly the IC50 on a negative log10 scale, so that one unit is a factor of ten) in test [6] is 5.36.
Turning to `CCCOc1ccc(C2C(C(=O)c3ccc4c(c3)OCCO4)=C(O)C(=O)N2c2nc3ccc(C)cc3s2)cc1` (stereo unspecified), the Activity in test [1] came out at 43%; in test [2], 80%; in test [3], 99.2%; in test [4], 49.5%; in test [5], 22.6%; in test [7], 81.8%. The pIC50 in test [6] is 5.70.
As for `CCCCOc1ccc(C2C(C(=O)c3ccc4c(c3)OCCO4)=C(O)C(=O)N2c2nc3ccc(Cl)cc3s2)cc1OCC` (stereo unspecified), the Activity is 19.7% in test [1]; 100% in test [2]; 78.8% in test [3]; 28.8% in test [4]; 18% in test [5]; 89.7% in test [7]. Further, in test [6], the pIC50 was 5.44.

The record behind these values is ChEMBL document CHEMBL3400130, “Identification of apoptosis signal-regulating kinase 1 (ASK1) inhibitors among the derivatives of benzothiazol-2-yl-3-hydroxy-5-phenyl-1,5-dihydro-pyrrol-2-one” (Bioorg Med Chem, 2015).
